Patent publication US10517889B2, “Modulators of SMAD7 expression” (Ionis Pharmaceuticals, Inc., priority 2017, dated 2019)
Strand notation (5' to 3'): a small letter for the sugar, then the base; units joined by * are phosphorothioate-linked, units joined directly phosphodiester-linked; [ ] holds rarer units or linkages, { } end groups; capitals alone tell only the bases. k = constrained ethyl (cEt); [5mC] = 5-methylcytosine; d = 2'-deoxy (DNA)

Tested on: human SMAD7 mRNA
Assay: Antisense inhibition of human SMAD7 mRNA expression in Hep3B cells by 3-10-3 cEt gapmers, 10,000 nM, electroporation (Example 2)
Assay type: cell-based
Settings: Hep3B cells, 10,000 nM antisense oligonucleotide, electroporation, approximately 24 hours, RT-PCR primer probe set RTS5062, relative to untreated control cells
Method in brief: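 qRT-PCR (RTS5062) of SMAD7 mRNA, normalised to RIBOGREEN total RNA, gave percent inhibition relative to untreated controls. Hep3B cells at 20,000 per well received 10,000 nM oligonucleotide by electroporation, with ~24 h treatment.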

Row | Substance | % Inhibition
1 | 799859 (kT*kG*kT*dA*dA*dT*dT*dT*dA*dG*d[5mC]*dA*dA*kT*kT*k[5mC]; antisense) [compound 799859] | 32%
2 | 799871 (kT*kT*kG*dG*dA*d[5mC]*dA*d[5mC]*dA*d[5mC]*dT*d[5mC]*dA*k[5mC]*kT*kG; antisense) [compound 799871] | 0%
3 | 799892 (antisense kG*k[5mC]*kA*dT*d[5mC]*dA*dT*dT*dA*dA*dG*d[5mC]*d[5mC]*kA*kA*kT) [compound 799892] | 54%
4 | 798871 (kA*kA*kA*dG*d[5mC]*d[5mC]*dT*dT*dG*dA*dT*dG*dG*kA*kG*kA; antisense) [compound 798871] | 20%
5 | 800070 (antisense k[5mC]*k[5mC]*kA*dT*dG*dG*d[5mC]*dG*dG*dA*dA*dG*dA*kT*kG*kG) [compound 800070] | 9%

Same assay, conditions: Hep3B cells, electroporation with 10,000 nM antisense oligonucleotide, approximately 24 hours, RTS5062, percent inhibition of SMAD7 mRNA relative to untreated control cells

Row | Substance | % Inhibition
6 | 799789 (kA*k[5mC]*kA*d[5mC]*dA*dA*d[5mC]*d[5mC]*dA*dA*dA*dG*d[5mC]*kA*kG*kA; antisense) [compound 799789] | 44%
7 | 799747 (antisense kA*kA*kA*dT*dG*dG*dG*dA*dA*dA*dT*dA*dA*kG*kG*k[5mC]) [compound 799747] | 43%
8 | 799790 (kG*kA*kG*dA*d[5mC]*d[5mC]*dT*dA*d[5mC]*d[5mC]*dT*d[5mC]*dT*kG*kT*kT; antisense) [compound 799790] | 33%

Same assay, conditions: Hep3B cells, electroporation with 10,000 nM antisense oligonucleotide, approximately 24 hours, SMAD7 mRNA by RT-PCR (RTS5062), relative to untreated control cells

Row | Substance | % Inhibition
9 | 798680 (antisense k[5mC]*kA*kT*dG*dA*d[5mC]*d[5mC]*dT*d[5mC]*d[5mC]*dG*d[5mC]*dA*k[5mC]*kA*k[5mC]) [compound 798680] | 31%
10 | 800002 (k[5mC]*k[5mC]*k[5mC]*d[5mC]*dA*dA*dG*dA*dT*dT*d[5mC]*d[5mC]*dA*kT*kT*kT; antisense) [compound 800002] | 0%
11 | 798755 (kG*k[5mC]*k[5mC]*d[5mC]*dA*dG*d[5mC]*d[5mC]*dT*dG*d[5mC]*dA*dG*kT*k[5mC]*k[5mC]; antisense) [compound 798755] | 46%
12 | 800026 (kT*k[5mC]*kA*dG*dT*dA*d[5mC]*dA*dA*dG*dG*dA*d[5mC]*kT*kA*kA; antisense) [compound 800026] | 50%
13 | 799494 (antisense kA*kG*kG*dA*dT*dA*d[5mC]*dA*d[5mC]*dT*dT*dA*dA*kT*k[5mC]*kA) [compound 799494] | 45%
14 | 830189 (antisense kT*kT*kG*dG*dA*dG*d[5mC]*dA*dA*d[5mC]*dA*d[5mC]*d[5mC]*kA*kG*kA) [compound 830189] | 49%
15 | 830112 (kG*k[5mC]*k[5mC]*d[5mC]*d[5mC]*dA*dT*dT*d[5mC]*dA*dT*dT*dA*kA*kG*k[5mC]; antisense) [compound 830112] | 23%
16 | 830209 (kA*k[5mC]*k[5mC]*dG*dG*dA*dA*dG*dT*d[5mC]*dT*dT*dG*kT*kA*kT; antisense) [compound 830209] | 31%
17 | 830182 (antisense kG*kT*kG*dT*d[5mC]*d[5mC]*dT*dT*d[5mC]*dA*dG*dA*dA*k[5mC]*kA*k[5mC]) [compound 830182] | 0%
18 | 798816 (k[5mC]*k[5mC]*kA*d[5mC]*dG*d[5mC]*dA*d[5mC]*d[5mC]*dA*dG*dT*dG*kT*kG*kA; antisense) [compound 798816] | 24%
19 | 798862 (kT*k[5mC]*k[5mC]*dA*dG*dT*dG*dT*dG*dG*d[5mC]*dG*dG*kA*k[5mC]*kT; antisense) [compound 798862] | 20%
20 | 830094 (kT*k[5mC]*kT*dT*dA*d[5mC]*d[5mC]*dT*dG*dA*dA*dA*dG*k[5mC]*k[5mC]*k[5mC]; antisense) [compound 830094] | 30%

Same assay, conditions: Hep3B cells, electroporation with 10,000 nM antisense oligonucleotide, approximately 24 hours, primer probe set RTS5062, relative to untreated control cells

Row | Substance | % Inhibition | % inhibition of SMAD7 mRNA expression
21 | 799136 (antisense k[5mC]*kT*kT*d[5mC]*dT*dT*dG*dG*dA*dG*dG*dG*dA*kA*kG*kG) [compound 799136] | 3% | –
22 | 799421 (antisense kA*kA*k[5mC]*d[5mC]*d[5mC]*dA*dA*dG*dA*d[5mC]*d[5mC]*dA*dA*kA*kA*kA) [compound 799421] | – | 63%
23 | 799484 (antisense k[5mC]*kG*k[5mC]*d[5mC]*dA*d[5mC]*d[5mC]*dT*dT*dT*dG*dG*d[5mC]*kT*kG*kG) [compound 799484] | – | 0%
24 | 799378 (antisense kG*kA*kA*dT*dA*d[5mC]*dT*dG*dA*dG*dA*dA*dA*kA*k[5mC]*k[5mC]) [compound 799378] | – | 46%
25 | 799243 (k[5mC]*k[5mC]*kA*d[5mC]*dT*dG*dG*dT*dG*dT*dT*d[5mC]*dG*kA*k[5mC]*kG; antisense) [compound 799243] | – | 19%
26 | 799011 (k[5mC]*kA*kA*dA*dA*d[5mC]*dA*dA*dA*dG*dA*dG*d[5mC]*kA*k[5mC]*kG; antisense) [compound 799011] | – | 35%
27 | 799192 (antisense kT*kT*kT*d[5mC]*d[5mC]*dA*dA*dT*dG*dA*dG*dA*dA*kT*kG*k[5mC]) [compound 799192] | 60% | –
28 | 799401 (antisense kT*k[5mC]*kT*dT*dT*dT*dA*dA*dG*dG*dA*dA*dA*kA*k[5mC]*k[5mC]) [compound 799401] | – | 53%
29 | 799439 (antisense kA*kA*kG*dA*dG*dG*dG*dA*d[5mC]*d[5mC]*dT*d[5mC]*dG*kG*kT*kT) [compound 799439] | – | 0%
30 | 799015 (kG*kG*kG*dA*d[5mC]*dA*dT*d[5mC]*d[5mC]*dA*dT*dA*dA*kG*kA*kG; antisense) [compound 799015] | 25% | –

Same assay, conditions: Hep3B cells, electroporation, 10,000 nM antisense oligonucleotide, approximately 24 hours, RTS5062, relative to untreated control cells

Row | Substance | % inhibition of SMAD7 mRNA expression
31 | 799574 (k[5mC]*kA*kT*dT*d[5mC]*dA*dG*dG*dG*dT*dT*dT*dA*kA*kA*kA; antisense) [compound 799574] | 7%
32 | 799697 (antisense kA*kA*kT*dA*dG*dT*dT*dT*dT*d[5mC]*dT*d[5mC]*dT*k[5mC]*kA*kA) [compound 799697] | 59%

Same assay, conditions: SMAD7 mRNA, Hep3B cells, 10,000 nM antisense oligonucleotide, electroporation, approximately 24 hours, primer probe set RTS5062, relative to untreated control cells

Row | Substance | % Inhibition
33 | 790701 (kG*kG*kA*dT*dA*d[5mC]*dA*d[5mC]*dT*dT*dA*dA*dT*k[5mC]*kA*kA; antisense) [compound 790701] | 57%
34 | 829782 (antisense kA*kT*k[5mC]*d[5mC]*dG*dG*d[5mC]*d[5mC]*dA*d[5mC]*d[5mC]*dT*dG*kA*kA*k[5mC]) [compound 829782] | 36%
35 | 829744 (antisense kA*k[5mC]*kG*dG*d[5mC]*dT*d[5mC]*d[5mC]*dT*d[5mC]*d[5mC]*dA*dG*kA*kG*kA) [compound 829744] | 39%
36 | 772535 (antisense k[5mC]*k[5mC]*kG*d[5mC]*dA*d[5mC]*dA*d[5mC]*d[5mC]*dA*dT*dG*dA*kA*kG*kA) [compound 772535] | 29%
37 | 801132 (antisense kG*kG*kT*dG*dA*d[5mC]*dT*d[5mC]*dA*dT*d[5mC]*dA*dG*kG*k[5mC]*kA) [compound 801132] | 55%

Same assay, conditions: SMAD7 mRNA, Hep3B cells, electroporation with 10,000 nM antisense oligonucleotide, approximately 24 hours, primer probe set RTS5062, relative to untreated control cells

Row | Substance | % Inhibition
38 | 829953 (kG*kT*k[5mC]*dA*d[5mC]*d[5mC]*d[5mC]*dG*dT*d[5mC]*dT*dG*dG*kG*k[5mC]*kT; antisense) [compound 829953] | 34%
39 | 829918 (antisense kG*kA*kG*dT*dG*dT*dA*dT*dG*dA*dG*dT*dT*kG*kT*kA) [compound 829918] | 53%
40 | 829890 (antisense kA*kA*kG*d[5mC]*d[5mC]*d[5mC]*dG*dT*d[5mC]*d[5mC]*dA*d[5mC]*dG*kG*k[5mC]*kT) [compound 829890] | 0%
